Results reported in patent publication US10052320B2, “Substituted quinoxalines as FGFR kinase inhibitors” (ASTEX THERAPEUTICS LIMITED, priority 2011, dated 2018).
Structures can show the parent of a compound that is named as a salt.

Target: Ba/F3-KDR-transfected cells (Homo sapiens, UniProt P35968)
Assay: Ba/F3-KDR (minus IL3) cellular proliferation assay, Alamar Blue
Assay type: cell-based
Conditions: minus IL3
Description: Ba/F3-KDR (Minus IL3 or Plus IL3) (Cellular Proliferation Assay)
(§1) In a 384 well plate, 100 nl of compound dilution in DMSO was sprayed before adding 50 μl cell culture medium (phenol red free RPMI-1640, 10% FBS, 2 mM L-Glutamine and 50 μg/ml Gentamycin) containing 20000 cells per well of Ba/F3-KDR-transfected cells. Cells were put in an incubator at 37° C. and 5% CO2. After 24 hours, 10 μl of Alamar Blue solution (0.5 mM K3Fe(CN)6, 0.5 mM KaFe(CN)6, 0.15 mM Resazurin and 100 mM Phosphate Buffer) was added to the wells, incubated for 4 hours at 37° C. and 5% CO2 before RFU's (Relative Fluorescence Units) (ex. 540 nm., em. 590 nm.) were measured in a flurorescence plate reader.
As a counterscreen the same experiment was performed in the presence of 10 ng/ml murine IL3.
as §1, with “a 96” for “a 384”, “plate, 180” for “plate, 100 nl of compound dilution in DMSO was sprayed before adding 50”, “containing 10000” for “containing 20000”, “Ba/F3-KDR-transfected cells were pipette and 20 μl of compound dilution in DMSO was added.” for “Ba/F3-KDR-transfected cells.”, “hours, 40” for “hours, 10”, “CO2” for “CO2 before”

Chain of Ba/F3-KDR-transfected cells (P35968 whole entry, change not shown): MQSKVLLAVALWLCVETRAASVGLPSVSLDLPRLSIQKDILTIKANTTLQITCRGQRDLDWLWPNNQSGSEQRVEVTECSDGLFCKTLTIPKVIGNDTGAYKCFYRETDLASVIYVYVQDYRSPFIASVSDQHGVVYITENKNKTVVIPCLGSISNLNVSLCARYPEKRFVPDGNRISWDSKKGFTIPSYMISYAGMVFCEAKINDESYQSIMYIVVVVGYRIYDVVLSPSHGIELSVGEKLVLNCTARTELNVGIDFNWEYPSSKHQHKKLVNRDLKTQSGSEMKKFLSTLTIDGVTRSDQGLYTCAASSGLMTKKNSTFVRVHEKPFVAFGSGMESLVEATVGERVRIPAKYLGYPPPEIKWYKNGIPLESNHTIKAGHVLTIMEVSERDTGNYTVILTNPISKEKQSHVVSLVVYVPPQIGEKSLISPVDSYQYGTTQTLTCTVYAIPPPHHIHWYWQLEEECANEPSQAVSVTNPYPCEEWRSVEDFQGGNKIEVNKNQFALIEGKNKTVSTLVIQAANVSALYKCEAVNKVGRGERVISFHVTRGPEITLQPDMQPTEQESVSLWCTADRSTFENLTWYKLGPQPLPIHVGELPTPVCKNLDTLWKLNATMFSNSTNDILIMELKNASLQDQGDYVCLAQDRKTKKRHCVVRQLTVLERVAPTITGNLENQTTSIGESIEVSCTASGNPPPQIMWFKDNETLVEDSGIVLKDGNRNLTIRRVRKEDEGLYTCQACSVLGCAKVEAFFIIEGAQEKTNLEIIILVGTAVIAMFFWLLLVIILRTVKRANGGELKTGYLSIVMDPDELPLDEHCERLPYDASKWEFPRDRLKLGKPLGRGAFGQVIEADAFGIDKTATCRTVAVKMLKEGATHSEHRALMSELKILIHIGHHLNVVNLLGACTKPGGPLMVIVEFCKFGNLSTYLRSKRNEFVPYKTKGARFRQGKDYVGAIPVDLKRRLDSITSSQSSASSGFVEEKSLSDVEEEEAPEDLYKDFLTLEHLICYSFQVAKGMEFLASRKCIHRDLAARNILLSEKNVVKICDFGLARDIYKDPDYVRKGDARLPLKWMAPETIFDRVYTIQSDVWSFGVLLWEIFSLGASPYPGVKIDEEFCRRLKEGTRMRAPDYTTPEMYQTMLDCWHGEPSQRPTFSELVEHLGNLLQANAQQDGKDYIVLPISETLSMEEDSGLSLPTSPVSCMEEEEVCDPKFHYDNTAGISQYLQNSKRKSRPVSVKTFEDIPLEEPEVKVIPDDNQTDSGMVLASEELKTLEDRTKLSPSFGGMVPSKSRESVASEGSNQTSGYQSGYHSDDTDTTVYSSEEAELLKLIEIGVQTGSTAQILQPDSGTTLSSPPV

Question: Which “BAF3-KDR (MIN IL3) 384 well pIC50” value does the source give for `COc1cc(OC)cc(N(CC2CC2)c2ccc3ncc(-c4ccccc4)nc3c2)c1` [Compound 119] here?
Answer: Its value is <5.

Tested on: not given
Assay: not given
Conditions: not given

Question: With `COc1cc(OC)cc(N(CCNC(C)C)c2ccc3ncc(C(=O)NCCN4CCOCC4)nc3c2)c1` (as salt: HCl) (hydrate or solvate) [Compound 160] as the compound, how does the melting point read?
Answer: The melting point was 149 °C.

Question: Which melting point does the source give for `COc1cc(OC)cc(N(CCNC(C)C)c2ccc3ncc(C(=O)NCCCN4CCN(C)CC4)nc3c2)c1` (as salt: HCl) (hydrate or solvate) [Compound 159] here?
Answer: Its melting point is 176 °C.

Question: Which melting point does the source give for `COc1cc(OC)cc(N(CCCNCC(F)(F)F)c2ccc3ncc(C(=O)NCCN4CCOCC4)nc3c2)c1` (as salt: HCl) (hydrate or solvate) [Compound 158] here?
Answer: Its melting point is 138 °C.

Question: For `COc1cc(OC)cc(N(CCNC(C)C)c2ccc3ncc(-c4ccnc(C(=O)NCCCN)c4)nc3c2)c1` (as salt: HCl) (hydrate or solvate) [Compound 146], which melting point is on record?
Answer: Its melting point is 188 °C.

Question: With `COc1cc(OC)cc(N(CCNC(C)C)c2ccc3ncc(C(=O)N4CCCCC4)nc3c2)c1` (as salt: HCl) (hydrate or solvate) [Compound 180] as the compound, how does the melting point read?
Answer: The melting point was 236 °C.

Question: With `COc1cc(OC)cc(N(CCCNCC(F)(F)F)c2ccc3ncc(-c4ccn(C)c4)nc3c2)c1` (as salt: HCl) [Compound 5] as the compound, how does the melting point read?
Answer: Its melting point is 186 °C.

Question: Which melting point does the source give for `COc1cc(OC)cc(N(CCNC(C)C)c2ccc3ncc(N4CCC(CN)CC4)nc3c2)c1` (as salt: HCl) (hydrate or solvate) [Compound 67] here?
Answer: Its melting point is 193 °C.

Question: With `COc1cc(OC)cc(N(CC2CC2)c2ccc3ncc(-c4ccccc4)nc3c2)c1` [Compound 119] as the compound, how does the melting point read?
Answer: Its melting point is 84 °C.

Question: With `COc1cc(OC)cc(N(CCNC(C)C)c2ccc3ncc(C(=O)N4CCOCC4)nc3c2)c1` (as salt: HCl) (hydrate or solvate) [Compound 181] as the compound, how does the melting point read?
Answer: Its melting point is 255 °C.

Question: For `COc1cc(OC)cc(N(CCNC(C)C)c2ccc3ncc(-c4ccccc4)nc3c2)c1` (as salt: HCl) (hydrate or solvate) [Compound 121], which melting point is on record?
Answer: The melting point was 149 °C.

Question: With `COc1cc(OC)cc(N(CC2CC2)c2ccc3ncc(-c4ccn[nH]4)nc3c2)c1` (as salt: HCl) [Compound 58] as the compound, how does the melting point read?
Answer: Its melting point is 134 °C.

Question: With `COc1cc(OC)cc(N(CCNC(C)C)c2ccc3ncc(-c4ccn[nH]4)nc3c2)c1` (as salt: HCl) [Compound 189] as the compound, how does the melting point read?
Answer: The melting point was 145 °C.

Question: With `COc1cc(OC)cc(N(CC2CC2)c2ccc3ncc(-c4ccc5c(ccn5C)c4)nc3c2)c1` (as salt: HCl) (hydrate or solvate) [Compound 20] as the compound, how does the melting point read?
Answer: Its melting point is 105 °C.

Question: With `COc1cc(OC)cc(N(CCNC(C)C)c2ccc3ncc(C(=O)N4CCN(C)CC4)nc3c2)c1` (as salt: HCl) (hydrate or solvate) [Compound 179] as the compound, how does the melting point read?
Answer: Its melting point is 250 °C.

Question: Which melting point does the source give for `COc1cc(OC)cc(N(CCNC(C)C)c2ccc3ncc(-c4ccn(C)c4)nc3c2)c1` (as salt: HCl) [Compound 8] here?
Answer: The melting point was 200 °C.

Question: Which melting point does the source give for `COc1cc(OC)cc(N(CCN2C(=O)c3ccccc3C2=O)c2ccc3ncc(-c4ccc(N)nc4)nc3c2)c1` [Compound 57] here?
Answer: Its melting point is 222 °C.

Question: Which melting point does the source give for `COc1cc(OC)cc(N(CC2CC2)c2ccc3ncc(-n4ccnc4C)nc3c2)c1` (as salt: HCl) [Compound 32] here?
Answer: The melting point was 223 °C.

Question: Which melting point does the source give for `COc1cc(OC)cc(N(Cc2cccc(CN)n2)c2ccc3ncc(-c4ccc(N)nc4)nc3c2)c1` (as salt: HCl) [Compound 51] here?
Answer: Its melting point is 170 °C.

Question: With `COc1cc(OC)cc(N(CCNC(C)C)c2ccc3ncc(NCC4CCNCC4)nc3c2)c1` (as salt: HCl) (hydrate or solvate) [Compound 161] as the compound, how does the melting point read?
Answer: Its melting point is 185 °C.

Question: With `COc1cc(OC)cc(N(CCNC(C)C)c2ccc3ncc(-c4cccnc4)nc3c2)c1` (as salt: HCl) (hydrate or solvate) [Compound 10] as the compound, how does the melting point read?
Answer: The melting point was 174 °C.

Question: For `COc1cc(OC)cc(N(CCNC(C)C)c2ccc3ncc(-n4cnc(CO)c4)nc3c2)c1` (as salt: HCl) (hydrate or solvate) [Compound 77], which melting point is on record?
Answer: Its melting point is 150 °C.

Question: Which melting point does the source give for `COCC(CN(c1cc(OC)cc(OC)c1)c1ccc2ncc(-c3cccnc3)nc2c1)OC(C)=O` (single isomer, unassigned) (as salt: HCl) (hydrate or solvate) [Compound 76] here?
Answer: Its melting point is 80 °C.

Target: T1, Ba/F3-Flt3-transfected cells (Homo sapiens, UniProt P36888, cells depend on it, form not given)
T1 sequence (P36888 1-993): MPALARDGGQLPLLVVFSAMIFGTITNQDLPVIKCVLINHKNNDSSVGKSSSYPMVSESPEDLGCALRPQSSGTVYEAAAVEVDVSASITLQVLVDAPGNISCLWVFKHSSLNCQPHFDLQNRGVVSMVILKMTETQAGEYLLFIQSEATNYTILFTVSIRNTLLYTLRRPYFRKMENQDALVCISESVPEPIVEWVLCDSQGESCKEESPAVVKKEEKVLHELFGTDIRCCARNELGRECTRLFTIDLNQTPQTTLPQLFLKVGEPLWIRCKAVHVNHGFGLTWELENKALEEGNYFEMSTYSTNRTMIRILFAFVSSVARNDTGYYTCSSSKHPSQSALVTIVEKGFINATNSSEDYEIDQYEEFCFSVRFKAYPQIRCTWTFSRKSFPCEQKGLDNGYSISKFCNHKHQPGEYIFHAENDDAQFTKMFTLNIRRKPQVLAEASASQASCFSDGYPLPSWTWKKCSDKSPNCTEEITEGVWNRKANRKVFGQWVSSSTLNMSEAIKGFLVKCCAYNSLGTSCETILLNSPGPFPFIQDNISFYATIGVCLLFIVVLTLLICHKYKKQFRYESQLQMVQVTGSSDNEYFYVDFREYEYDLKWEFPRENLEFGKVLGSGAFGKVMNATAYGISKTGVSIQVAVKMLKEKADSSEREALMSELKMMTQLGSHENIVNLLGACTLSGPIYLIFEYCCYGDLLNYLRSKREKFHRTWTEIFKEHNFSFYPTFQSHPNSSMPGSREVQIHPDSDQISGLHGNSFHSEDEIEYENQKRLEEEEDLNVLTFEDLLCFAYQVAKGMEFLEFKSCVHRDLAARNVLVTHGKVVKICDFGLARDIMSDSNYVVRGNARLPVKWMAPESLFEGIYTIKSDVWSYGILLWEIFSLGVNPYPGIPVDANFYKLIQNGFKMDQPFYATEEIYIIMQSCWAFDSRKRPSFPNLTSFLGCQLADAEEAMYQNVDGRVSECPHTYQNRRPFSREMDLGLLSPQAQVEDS
Assay: Ba/F3-Flt3 (minus IL3) cellular proliferation assay, Alamar Blue
Assay type: cell-based
Conditions: minus IL3
Description: Ba/F3-Flt3 (Minus IL3 or Plus IL3) (Cellular Proliferation Assay)
Cells were put in an incubator at 37° C. and 5% CO2. After 24 hours, 10 μl of Alamar Blue solution (0.5 mM K3Fe(CN)6, 0.5 mM KaFe(CN)6, 0.15 mM Resazurin and 100 mM Phosphate Buffer) was added to the wells, incubated for 4 hours at 37° C. and 5% CO2 before RFU's (Relative Fluorescence Units) (ex. 540 nm., em. 590 nm.) were measured in a flurorescence plate reader. […]
as §1, with “a 96” for “a 384”, “plate, 180” for “plate, 100 nl of compound dilution in DMSO was sprayed before adding 50”, “containing 10000” for “containing 20000”, “of Ba/F3-Flt3-transfected cells were pipette and 20 μl of compound dilution in DMSO was added.” for “of Ba/F3-KDR-transfected cells.”, “hours, 40” for “hours, 10”

Question: For `COc1cc(OC)cc(N(CC2CC2)c2ccc3ncc(-c4ccccc4)nc3c2)c1` [Compound 119], which “BAF3-FLT3 (MIN IL3) 384 well pIC50” value is on record?
Answer: The value was <5.

Target: KDR (h) (VEGFR2) (Homo sapiens, UniProt P35968)
Assay: KDR (VEGFR2) (enzymatic assay), TR-FRET
Assay type: biochemical
Conditions: not given
Description: KDR (VEGFR2) (Enzymatic Assay)
In a final reaction volume of 30 μL, KDR (h) (150 ng/ml) was incubated with 50 mM HEPES pH 7.5, 6 mM MnCl2, 1 mM DTT, 0.1 mM Na3VO4, 0.01% Triton-X-100, 500 nM Btn-Flt3 and 3 μM ATP in the presence of compound (1% DMSO final). After incubation for 120 minutes at room temperature the reaction was stopped with 2.27 nM EU-anti P-Tyr, 7 mM EDTA, 31.25 nM SA-XL-665 and 0.02% BSA which was present for 60 minutes at room temperature. Time-Resolved Fluorescence Resonance Energy Transfer (TR-FRET) signal (ex340 nm. Em 620 nm, em 655 nm) was measured afterwards and results are expressed in RFU (Relative Fluorescence Units).

Chain of KDR (h) (VEGFR2) (P35968 20-1356): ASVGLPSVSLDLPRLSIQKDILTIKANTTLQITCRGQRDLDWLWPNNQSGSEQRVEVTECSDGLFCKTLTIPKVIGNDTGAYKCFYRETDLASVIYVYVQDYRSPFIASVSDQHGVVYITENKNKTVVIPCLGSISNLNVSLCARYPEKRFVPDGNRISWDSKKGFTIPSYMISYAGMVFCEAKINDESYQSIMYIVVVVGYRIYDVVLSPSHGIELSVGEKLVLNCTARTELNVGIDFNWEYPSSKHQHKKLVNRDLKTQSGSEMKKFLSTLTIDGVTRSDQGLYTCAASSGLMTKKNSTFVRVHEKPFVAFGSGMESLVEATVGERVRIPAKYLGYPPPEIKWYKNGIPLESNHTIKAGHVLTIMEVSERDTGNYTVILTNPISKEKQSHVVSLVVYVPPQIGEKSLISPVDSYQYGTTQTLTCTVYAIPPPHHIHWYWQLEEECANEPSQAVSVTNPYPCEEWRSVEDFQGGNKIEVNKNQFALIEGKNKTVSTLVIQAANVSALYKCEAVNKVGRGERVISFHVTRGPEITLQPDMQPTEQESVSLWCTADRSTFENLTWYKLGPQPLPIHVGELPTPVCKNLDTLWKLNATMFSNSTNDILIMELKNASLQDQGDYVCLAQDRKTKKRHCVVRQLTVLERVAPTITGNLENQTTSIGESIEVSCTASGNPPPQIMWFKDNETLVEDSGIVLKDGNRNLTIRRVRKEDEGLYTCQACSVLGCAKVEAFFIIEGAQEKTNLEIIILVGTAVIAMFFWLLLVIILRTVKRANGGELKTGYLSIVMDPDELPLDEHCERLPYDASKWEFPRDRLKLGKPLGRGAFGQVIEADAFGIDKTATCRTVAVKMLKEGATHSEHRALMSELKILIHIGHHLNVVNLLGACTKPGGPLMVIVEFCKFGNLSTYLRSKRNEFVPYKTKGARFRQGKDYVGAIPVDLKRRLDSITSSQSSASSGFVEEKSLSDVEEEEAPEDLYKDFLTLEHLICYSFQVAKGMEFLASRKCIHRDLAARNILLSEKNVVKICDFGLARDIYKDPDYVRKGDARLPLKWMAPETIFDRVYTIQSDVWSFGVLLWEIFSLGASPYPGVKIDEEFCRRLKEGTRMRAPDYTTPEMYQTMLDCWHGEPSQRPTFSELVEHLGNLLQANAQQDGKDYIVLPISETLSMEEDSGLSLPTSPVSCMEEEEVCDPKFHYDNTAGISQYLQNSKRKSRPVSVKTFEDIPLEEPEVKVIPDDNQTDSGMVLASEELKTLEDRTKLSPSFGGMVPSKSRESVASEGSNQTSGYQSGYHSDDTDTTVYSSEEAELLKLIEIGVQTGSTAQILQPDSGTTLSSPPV

Question: With `COc1cc(OC)cc(N(CC2CC2)c2ccc3ncc(-c4ccccc4)nc3c2)c1` [Compound 119] as the compound, how does the IC50 read?
Answer: The IC50 was > 1000 nM.
